In ChEMBL document CHEMBL5137015, “Design, synthesis, and evaluation of a novel series of mono-indolylbenzoquinones derivatives for the potential treatment of breast cancer” (Eur J Med Chem, 2022):
pIC50: −log10 of the molar value. Activity calls are given as the source filed them. The rule behind the calls is not given here.

How the values were obtained:
MDA-MB-231 [1] = test: Induction of apoptosis in human MDA-MB-231 cells assessed as late apoptotic cells by measuring red fluorescence at 0.01 to 1 uM by PI staining based fluorescence microscopic analysis; assay type: functional, cell-based; conditions: dose 0.01-1 µM
MDA-MB-231 [2] = test: Induction of apoptosis in human MDA-MB-231 cells assessed as increase in pro-caspase 3 level at 100 nM incubated for 48 hrs; assay type: functional, cell-based
MDA-MB-231 [3] = test: Induction of apoptosis in human MDA-MB-231 cells assessed as increase in p53 protein expression at 1 uM incubated for 24 hrs by Western blot analysis; assay type: functional, cell-based
4T1 [4] = test: Antitumor activity against mouse 4T1 cells xenografted in Balb/c mouse assessed as tumor growth inhibition at 50 mg/kg, ip administered every two days for 14 days; assay type: functional; parameters: scale not given: the % may be the effect or the level left; conditions: time 14 day
MDA-MB-231 [5] = test: Induction of apoptosis in human MDA-MB-231 cells assessed as increase in cytochrome C expression at 0.5 to 3 times of IC50 concentration by Western blot analysis; assay type: functional, cell-based
MDA-MB-231 [6] = test: Induction of mitochondrial membrane potential loss in human MDA-MB-231 cells assessed as increase in green fluorescence intensity at 0.1 to 1 uM measured after 24 hrs byJC-1 staining based fluorescence microscopic analysis; assay type: functional, cell-based; conditions: dose 0.1-1 µM
[7] = Drug metabolism in Balb/c mouse liver implanted with mouse 4T1 cells assessed as dechlorination of parent compound causing metabolite formation by LC-MS analysis; assay type: ADME, tissue-based
MDA-MB-231 [8] = test: Induction of cell cycle arrest in human MDA-MB-231 cells assessed as increase in G2 phase cells at 10 uM incubated for 24 hrs by PI staining based flow cytometric analysis (reference value: 8.95%); assay type: functional
[9] = Toxicity in Balb/c mouse implanted with mouse 4T1 cells assessed as lung lesions at 50 mg/kg administered intratumorally every four days for 14 days in the presence of liquid cyanoacrylate by H&E staining based histopathological analysis; assay type: organism-based; conditions: in vivo, other, 336 h, route it(Intratumoral), time 14 day
MDA-MB-231 [10] = test: Induction of cell cycle arrest in human MDA-MB-231 cells assessed as increase in S phase cells at 10 uM incubated for 24 hrs by PI staining based flow cytometric analysis (reference value: 16.61%); assay type: functional
[11] = Toxicity in Balb/c mouse xenografted with mouse 4T1 cells assessed as spleen lesions at 200 mg/kg administered topically over the tumor surface every two days for 14 days in the presence of cyanoacrylate by H&E staining based histopathological analysis; assay type: organism-based; conditions: in vivo, topical_or_ocular, 336 h, route top, time 14 day
MDA-MB-231 [12] = test: Induction of apoptosis in human MDA-MB-231 cells assessed as increase in caspase 3 expression at 1 uM incubated for 24 hrs by Western blot analysis; assay type: functional, cell-based
4T1 [13] = test: Antitumor activity against mouse 4T1 cells implanted in Balb/c mouse assessed as tumor growth inhibition at 50 mg/kg administered intratumorally every four days for 14 days in the presence of liquid cyanoacrylate relative to control; assay type: functional; conditions: 4T1, 336 h, route it(Intratumoral), time 14 day, read-out: TGI
MDA-MB-231 [14] = test: Induction of apoptosis in human MDA-MB-231 cells assessed as apoptotic cells at 10 uM incubated for 24 hrs by Annexin V-FITC/propidium iodide staining based flow cytometric method (reference value: 5.68%); assay type: functional
MDA-MB-231 [15] = test: Induction of apoptosis in human MDA-MB-231 cells assessed as late apoptotic cells by measuring green fluorescence at 0.01 to 1 uM by Annexin V-FITC staining based fluorescence microscopic analysis; assay type: functional, cell-based; conditions: dose 0.01-1 µM
4T1 [16] = test: Antitumor activity against mouse 4T1 cells implanted in Balb/c mouse assessed as TUNEL positive cells at 50 mg/kg administered intratumorally every four days for 14 days in the presence of liquid cyanoacrylate by TUNEL staining analysis; assay type: functional; conditions: route it(Intratumoral), time 14 day
MDA-MB-231 [17] = test: Induction of cell cycle arrest in human MDA-MB-231 cells assessed as decrease in G1 phase cells at 10 uM incubated for 24 hrs by PI staining based flow cytometric analysis (reference value: 74.44%); assay type: functional; parameters: scale not given: the % may be the effect or the level left
[18] = Drug metabolism in Balb/c mouse kidney implanted with mouse 4T1 cells assessed as dechlorination of parent compound causing metabolite formation by LC-MS analysis; assay type: ADME, tissue-based
MDA-MB-231 [19] = test: Induction of apoptosis in human MDA-MB-231 cells assessed as increase in cytoplasmic vacuoles at 1 uM incubated for 24 hrs by transmission electron microscopic analysis; assay type: functional, cell-based
[20] = Toxicity in Balb/c mouse implanted with mouse 4T1 cells assessed as liver lesions at 50 mg/kg administered intratumorally every four days for 14 days by H&E staining based histopathological analysis; assay type: organism-based; conditions: in vivo, other, 336 h, route it(Intratumoral), time 14 day
[21] = Toxicity in Balb/c mouse xenografted with mouse 4T1 cells assessed as heart lesions at 200 mg/kg administered topically over the tumor surface every two days for 14 days in the presence of cyanoacrylate by H&E staining based histopathological analysis; assay type: organism-based; conditions: in vivo, topical_or_ocular, 336 h, route top, time 14 day
4T1 [22] = test: Antitumor activity against mouse 4T1 cells xenografted in Balb/c mouse assessed as disordered nuclei at 200 mg/kg administered topically over the tumor surface every two days for 14 days in the presence of cyanoacrylate; assay type: functional, organism-based; conditions: route top, time 14.0 day
4T1 [23] = test: Antitumor activity aginst mouse 4T1 cells implanted in Balb/c mouse assessed as nuclei shrinkage at 50 mg/kg administered intratumorally every four days for 14 days; assay type: functional, organism-based; conditions: route it(Intratumoral), time 14.0 day
[24] = Acute toxicity in mouse assessed as death rate ratio at 600 mg/kg, ip measured over 14 days; assay type: organism-based; conditions: in vivo, 336 h, time 14 day
HeLa = test: Antiproliferative activity against human HeLa cells assessed as inhibition of cell growth by MTT assay; assay type: functional, cell-based
[25] = Drug metabolism in Balb/c mouse kidney implanted with mouse 4T1 cells assessed as 2-methyl hydroxylation of parent compound causing metabolite formation by LC-MS analysis; assay type: ADME, tissue-based
4T1 [26] = test: Antitumor activity against mouse 4T1 cells xenografted in Balb/c mouse assessed as tumor growth inhibition at 50 mg/kg administered intratumorally every four days for 14 days; assay type: functional; parameters: scale not given: the % may be the effect or the level left; conditions: route it(Intratumoral), time 14 day
MDA-MB-231 [27] = test: Induction of ROS production in human MDA-MB-231 cells assessed as increase in fluorescence intensity at 1 uM incubated for 24 hrs by DCFH-DA staining based fluorescence analysis; assay type: functional, cell-based
MDA-MB-231 [28] = test: Induction of apoptosis in human MDA-MB-231 cells assessed as increase in p53 level at 100 nM incubated for 48 hrs; assay type: functional, cell-based
[29] = Toxicity in Balb/c mouse xenografted with mouse 4T1 cells assessed as lung lesions at 200 mg/kg administered topically over the tumor surface every two days for 14 days in the presence of cyanoacrylate by H&E staining based histopathological analysis; assay type: organism-based; conditions: in vivo, topical_or_ocular, 336 h, route top, time 14 day
[30] = Toxicity in Balb/c mouse implanted with mouse 4T1 cells assessed as spleen lesions at 50 mg/kg, ip administered every two days for 14 days by H&E staining based histopathological analysis; assay type: organism-based; conditions: in vivo, 336 h, time 14 day
MDA-MB-231 [31] = test: Induction of apoptosis in human MDA-MB-231 cells assessed as change in membrane osmotic transport capacity; assay type: functional, cell-based
MDA-MB-231 [32] = test: Induction of apoptosis in human MDA-MB-231 cells assessed as increase in caspase 9 expression at 0.5 to 3 times of IC50 concentration by Western blot analysis; assay type: functional, cell-based
[33] = Acute toxicity in mouse assessed as death rate ratio at 238 mg/kg, ip measured over 14 days; assay type: organism-based; conditions: in vivo, 336 h, time 14 day
MDA-MB-231 [34] = test: Induction of apoptosis in human MDA-MB-231 cells assessed as increase in HTRA2/omi level at 100 nM incubated for 48 hrs; assay type: functional, cell-based

Cc1[nH]c2ccccc2c1C1=C(Cl)C(=O)C(Cl)=C(N2CCOCC2)C1=O
Activity (MDA-MB-231 [1]): Active | Activity (MDA-MB-231 [2]): Active | Activity (MDA-MB-231 [3]): Active | Activity (4T1 [4]): 36% | Activity (MDA-MB-231 [5]): Active | Activity (MDA-MB-231 [6]): Active | Drug metabolism [7]: Metabolite_Detected | Activity (MDA-MB-231 [8]): 55.05% | Activity [9]: Non-Toxic | Activity (MDA-MB-231 [10]): 28.47% | Activity [11]: Non-Toxic | Activity (MDA-MB-231 [12]): Active | inhibition in vivo at 50 mg/kg (4T1 [13]): 49.8% | Activity (MDA-MB-231 [14]): 31.69% | Activity (MDA-MB-231 [15]): Active | Activity (4T1 [16]): 49.52% | Activity (MDA-MB-231 [17]): 16.84% | Drug metabolism [18]: Metabolite_Detected | Activity (MDA-MB-231 [19]): Active | Activity [20]: Non-Toxic | Activity [21]: Non-Toxic | Activity (4T1 [22]): Active | Activity (4T1 [23]): Active | Ratio [24]: 1 | pIC50 (HeLa): 6.49 | Drug metabolism [25]: Metabolite_Detected | Activity (4T1 [26]): 24.6% | Activity (MDA-MB-231 [27]): Active | Activity (MDA-MB-231 [28]): Active | Activity [29]: Non-Toxic | Activity [30]: Non-Toxic | Activity (MDA-MB-231 [31]): Active | Activity (MDA-MB-231 [32]): Active | Ratio [33]: 0.17 | Activity (MDA-MB-231 [34]): Active
